# Test results: ChEMBL document CHEMBL3108728, “Anti-inflammatory activity of rhamnetin and a model of its binding to c-Jun NH2-terminal kinase 1 and p38 MAPK” (J Nat Prod, 2014)
# Activity calls are given as the source filed them. The calls are words filed in the database; no cut-off is given here.
# Key:
# [1] = molecular target: T1, MAP kinase p38 (Homo sapiens) (UniProt O15264+Q15759+Q16539+P53778); test: Binding affinity to human p38 MAPK expressed in Escherichia coli by circular dichroism method
# [2] = molecular target: Mitogen-activated protein kinase 8 (Homo sapiens) (UniProt P45983); test: Binding affinity to human C-terminal His6-tagged JNK1alpha1 (1 to 364) expressed in Escherichia coli by circular dichroism method
# Sequence of Mitogen-activated protein kinase 8 (Homo sapiens) (P45983 whole entry): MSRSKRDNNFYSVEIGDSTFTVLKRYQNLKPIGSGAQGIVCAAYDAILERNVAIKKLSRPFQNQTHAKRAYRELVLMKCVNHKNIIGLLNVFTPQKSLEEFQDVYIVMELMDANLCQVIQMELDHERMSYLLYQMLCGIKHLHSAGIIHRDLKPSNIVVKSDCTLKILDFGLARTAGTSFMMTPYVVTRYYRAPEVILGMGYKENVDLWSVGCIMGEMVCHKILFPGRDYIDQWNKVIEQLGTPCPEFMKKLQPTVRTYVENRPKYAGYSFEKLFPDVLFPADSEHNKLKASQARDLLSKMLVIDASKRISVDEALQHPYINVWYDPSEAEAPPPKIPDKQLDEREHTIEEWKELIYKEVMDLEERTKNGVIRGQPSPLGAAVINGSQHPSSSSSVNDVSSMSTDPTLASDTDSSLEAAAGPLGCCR
# [3] = molecular target: T1, MAP kinase p38 (Homo sapiens); test: Binding affinity to human p38 MAPK expressed in Escherichia coli by spectrofluorometry
# [4] = molecular target: Mitogen-activated protein kinase 8 (Homo sapiens) (UniProt P45983); test: Binding affinity to human C-terminal His6-tagged JNK1alpha1 (1 to 364) expressed in Escherichia coli by spectrofluorometry
# [5] = molecular target: T2, Monocyte differentiation antigen CD14 (Mus musculus) (UniProt P10810); test: Inhibition of CD14 in mouse RAW264.7 cells at 20 uM by Western blotting analysis; assay type: cell-based
# T2 sequence (whole entry): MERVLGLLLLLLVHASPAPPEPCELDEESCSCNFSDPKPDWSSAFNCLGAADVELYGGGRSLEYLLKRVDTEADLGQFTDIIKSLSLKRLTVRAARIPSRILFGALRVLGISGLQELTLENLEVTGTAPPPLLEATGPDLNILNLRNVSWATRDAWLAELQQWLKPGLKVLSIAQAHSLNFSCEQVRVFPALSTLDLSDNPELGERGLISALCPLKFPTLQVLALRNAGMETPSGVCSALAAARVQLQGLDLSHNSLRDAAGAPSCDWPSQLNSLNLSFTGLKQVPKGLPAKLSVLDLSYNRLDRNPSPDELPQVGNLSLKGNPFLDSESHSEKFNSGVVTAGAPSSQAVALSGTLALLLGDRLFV
# [6] = molecular target: Mitogen-activated protein kinase 8 (Mus musculus) (UniProt Q91Y86); test: Inhibition of IFNgamma-induced JNK phosphorylation in mouse RAW264.7 cells at 20 uM by Western blotting analysis relative to untreated control; assay type: cell-based
# Sequence of Mitogen-activated protein kinase 8 (Mus musculus) (Q91Y86 whole entry): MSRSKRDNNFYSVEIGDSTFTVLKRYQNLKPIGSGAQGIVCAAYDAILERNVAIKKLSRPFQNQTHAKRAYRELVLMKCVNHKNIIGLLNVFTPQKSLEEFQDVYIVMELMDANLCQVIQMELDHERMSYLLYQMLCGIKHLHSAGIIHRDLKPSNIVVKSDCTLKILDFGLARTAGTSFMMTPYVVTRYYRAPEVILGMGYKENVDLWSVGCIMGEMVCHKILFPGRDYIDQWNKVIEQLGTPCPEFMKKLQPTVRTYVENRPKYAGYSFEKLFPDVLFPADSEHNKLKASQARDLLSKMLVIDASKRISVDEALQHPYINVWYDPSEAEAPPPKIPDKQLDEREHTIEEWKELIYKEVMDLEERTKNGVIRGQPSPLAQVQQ
# [7] = molecular target: Mitogen-activated protein kinase 3 (Mus musculus) (UniProt Q63844); test: Inhibition of IFNgamma-induced ERK phosphorylation in mouse RAW264.7 cells at 20 uM by Western blotting analysis relative to untreated control; assay type: cell-based
# Sequence of Mitogen-activated protein kinase 3 (Mus musculus) (Q63844 whole entry): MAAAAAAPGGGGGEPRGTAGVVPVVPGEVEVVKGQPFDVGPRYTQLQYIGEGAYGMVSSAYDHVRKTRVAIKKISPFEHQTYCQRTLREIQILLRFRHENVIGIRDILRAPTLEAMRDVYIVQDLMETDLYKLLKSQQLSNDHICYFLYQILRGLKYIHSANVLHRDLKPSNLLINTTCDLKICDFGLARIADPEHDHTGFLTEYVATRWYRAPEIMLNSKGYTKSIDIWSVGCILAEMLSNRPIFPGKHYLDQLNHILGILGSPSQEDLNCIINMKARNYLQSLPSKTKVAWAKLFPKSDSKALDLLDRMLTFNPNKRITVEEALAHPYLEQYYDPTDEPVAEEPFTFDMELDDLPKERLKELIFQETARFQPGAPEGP
# [8] = molecular target: T3, MAP kinase p38 (Mus musculus) (UniProt P47811+O08911+Q9WUI1+Q9Z1B7); test: Inhibition of IFNgamma-induced p38 MAPK phosphorylation in mouse RAW264.7 cells at 20 uM by Western blotting analysis relative to untreated control; assay type: cell-based
# RAW264.7 [9] = test: Antiinflammatory activity against mouse RAW264.7 cells assessed as reduction of IFNgamma-induced NO production at 20 uM after 24 hrs; assay type: functional; design: scale not given: the % may be the effect or the level left
# RAW264.7 [10] = test: Antiinflammatory activity against mouse RAW264.7 cells assessed as reduction of IFNgamma-induced NO production at 10 uM after 24 hrs; assay type: functional; design: scale not given: the % may be the effect or the level left
# RAW264.7 [11] = test: Antiinflammatory activity against mouse RAW264.7 cells assessed as inhibition of LPS-induced COX2 protein expression at 20 uM by Western blotting analysis; assay type: functional
# [12] = molecular target: Mitogen-activated protein kinase 3 (Mus musculus) (UniProt Q63844); test: Inhibition of LPS-induced ERK phosphorylation in mouse RAW264.7 cells at 20 uM by Western blotting analysis; assay type: cell-based
# [13] = molecular target: T3, MAP kinase p38 (Mus musculus); test: Inhibition of LPS-induced p38 MAPK phosphorylation in mouse RAW264.7 cells at 20 uM by Western blotting analysis; assay type: cell-based
# [14] = molecular target: Mitogen-activated protein kinase 8 (Mus musculus) (UniProt Q91Y86); test: Inhibition of LPS-induced JNK phosphorylation in mouse RAW264.7 cells at 20 uM by Western blotting analysis; assay type: cell-based
# RAW264.7 [15] = test: Antiinflammatory activity against mouse RAW264.7 cells assessed as reduction of LPS-induced mMIP-1 mRNA expression at 25 uM after 3 hrs by RT-PCR analysis relative to untreated control; assay type: functional; design: scale not given: the % may be the effect or the level left
# RAW264.7 [16] = test: Antiinflammatory activity against mouse RAW264.7 cells assessed as reduction of LPS-induced mTNFalpha mRNA expression at 25 uM after 3 hrs by RT-PCR analysis relative to untreated control; assay type: functional, cell-based
# RAW264.7 [17] = test: Antiinflammatory activity against mouse RAW264.7 cells assessed as reduction of LPS-induced mMIP-2 mRNA expression at 25 uM after 3 hrs by RT-PCR analysis relative to untreated control; assay type: functional, cell-based
# RAW264.7 [18] = test: Antiinflammatory activity against mouse RAW264.7 cells assessed as reduction of LPS-induced mMIP-2 level at 20 uM after 24 hrs by ELISA relative to untreated control; assay type: functional; design: scale not given: the % may be the effect or the level left
# RAW264.7 [19] = test: Antiinflammatory activity against mouse RAW264.7 cells assessed as reduction of LPS-induced mMIP-2 level at 10 uM after 24 hrs by ELISA relative to untreated control; assay type: functional; design: scale not given: the % may be the effect or the level left
# RAW264.7 [20] = test: Antiinflammatory activity against mouse RAW264.7 cells assessed as inhibition of LPS-induced TNFalpha production at 20 uM after 24 hrs by ELISA; assay type: functional; conditions: RAW264.7, 24 h
# RAW264.7 [21] = test: Antiinflammatory activity against mouse RAW264.7 cells assessed as inhibition of LPS-induced TNFalpha production at 10 uM after 24 hrs by ELISA; assay type: functional; conditions: RAW264.7, 24 h
# RAW264.7 [22] = test: Antiinflammatory activity against mouse RAW264.7 cells assessed as reduction of LPS-induced NO production at 20 uM after 24 hrs; assay type: functional; design: scale not given: the % may be the effect or the level left
# RAW264.7 [23] = test: Antiinflammatory activity against mouse RAW264.7 cells assessed as reduction of LPS-induced NO production at 10 uM after 24 hrs; assay type: functional; design: scale not given: the % may be the effect or the level left
# HaCaT = test: Cytotoxicity against human HaCaT cells at 100 uM after 24 hrs by MTT assay relative to untreated control; assay type: cell-based
# [24] = Cytotoxicity against mouse RAW264.7 cells assessed as cell survival at 100 uM after 24 hrs by MTT assay relative to untreated control; assay type: cell-based; conditions: read-out: Survival
# RAW264.7 [25] = test: Cytotoxicity against mouse RAW264.7 cells up to 12.5 uM after 24 hrs by MTT assay relative to untreated control; assay type: cell-based; conditions: raw264.7, 24 h
smiles,measurement,setting,value
COc1cc(O)c2c(=O)c(O)c(-c3ccc(O)c(O)c3)oc2c1 [RHAMNETIN],Activity,[1],Active
same,Activity,[2],Active
same,K,[3],2.31 ×10⁷ /M
same,K,[4],9.7 ×10⁸ /M
same,inhibition,[5],inactive
same,inhibition,[6],92%
same,inhibition,[7],38%
same,inhibition,[8],58%
same,Activity,RAW264.7 [9],91.5%
same,Activity,RAW264.7 [10],73.2%
same,inhibition at 20 µM,RAW264.7 [11],76%
same,inhibition,[12],27%
same,inhibition,[13],51%
same,inhibition,[14],64%
same,Activity,RAW264.7 [15],96.2%
same,Activity,RAW264.7 [16],Active
same,Activity,RAW264.7 [17],Active
same,Activity,RAW264.7 [18],77%
same,Activity,RAW264.7 [19],42%
same,inhibition at 20 µM,RAW264.7 [20],63%
same,inhibition at 10 µM,RAW264.7 [21],54%
same,Activity,RAW264.7 [22],74%
same,Activity,RAW264.7 [23],62%
same,Activity,HaCaT,Non-toxic
same,"viability at 24 h, 100 µM",[24],> 55%
same,Activity,RAW264.7 [25],Non-toxic
